Measurements taken from patent US20170045529A1, “METHODS OF MEASURING ANTIGEN-SPECIFIC T CELLS” (ImmusanT, Inc., priority 2014, published 2017).
Non-standard residues stand in square brackets, D forms with d. pGlu = O=C1CC[C@@H](C(=O)O)N1

How the values were obtained:
Assay type in all cases: cell-based, human
[1] = test system: whole blood; assay: Whole blood IP-10 release to peptide pools and individual peptides, MAGPIX multiplex bead assay (Example 3); conditions: Table 10C, 10 uM
[2] = test system: whole blood; assay: Whole blood IL-2 release to peptide pools and individual peptides, MAGPIX multiplex bead assay (Example 3); conditions: 10 uM
[3] = test system: whole blood; assay: Whole blood IFN-γ release to peptide pools and individual peptides, MAGPIX multiplex bead assay (Example 3); conditions: 10 uM
[4] = Subject 1, day 0 since commencing oral challenge
[5] = Subject 1, day 6 since commencing oral challenge
[6] = Subject 2, day 0 since commencing oral challenge
[7] = Subject 2, day 6 since commencing oral challenge
[8] = Subject 6, day 0 since commencing oral challenge
[9] = Subject 6, day 6 since commencing oral challenge
[10] = Subject 7, day 0 since commencing oral challenge
[11] = Subject 7, day 6 since commencing oral challenge
[12] = Subject 1 (HLA-DQ 2.5, 8), day 0 of oral challenge
[13] = Subject 1 (HLA-DQ 2.5, 8), day 6 of oral challenge
[14] = Subject 2 (HLA-DQ 2.5, 8), day 0 of oral challenge
[15] = Subject 2 (HLA-DQ 2.5, 8), day 6 of oral challenge
[16] = Subject 6 (HLA-DQ 2.5), day 0 of oral challenge
[17] = Subject 6 (HLA-DQ 2.5), day 6 of oral challenge
[18] = Subject 7 (HLA-DQ 2.5, 8), day 0 of oral challenge
[19] = Subject 7 (HLA-DQ 2.5, 8), day 6 of oral challenge

(pE)LQPFPQPELPYPQPQ-NH2 ([pGlu]LQPFPQPELPYPQPQ-NH2; SMILES CC(C)C[C@H](NC(=O)[C@@H]1CCC(=O)N1)C(=O)N[C@@H](CCC(N)=O)C(=O)N1CCC[C@H]1C(=O)N[C@@H](Cc1ccccc1)C(=O)N1CCC[C@H]1C(=O)N[C@@H](CCC(N)=O)C(=O)N1CCC[C@H]1C(=O)N[C@@H](CCC(=O)O)C(=O)N[C@@H](CC(C)C)C(=O)N1CCC[C@H]1C(=O)N[C@@H](Cc1ccc(O)cc1)C(=O)N1CCC[C@H]1C(=O)N[C@@H](CCC(N)=O)C(=O)N1CCC[C@H]1C(=O)N[C@@H](CCC(N)=O)C(N)=O)
Whole blood IP-10 release, Concentration [1, 4]: 201 pg/mL
Whole blood IP-10 release, Fold-change over medium only [1, 4]: 0.76
Whole blood IP-10 release, Concentration [1, 5]: 384 pg/mL
Whole blood IP-10 release, Fold-change over medium only [1, 5]: 1.15
Whole blood IP-10 release, Concentration [1, 6]: 320 pg/mL
Whole blood IP-10 release, Fold-change over medium only [1, 6]: 1.20
Whole blood IP-10 release, Concentration [1, 7]: 1844 pg/mL
Whole blood IP-10 release, Fold-change over medium only [1, 7]: 5.90
Whole blood IP-10 release, Concentration [1, 8]: 1616 pg/mL
Whole blood IP-10 release, Fold-change over medium only [1, 8]: 5.83
Whole blood IP-10 release, Concentration [1, 9]: 10000 pg/mL
Whole blood IP-10 release, Fold-change over medium only [1, 9]: 49.76
Whole blood IP-10 release, Concentration [1, 10]: 977 pg/mL
Whole blood IP-10 release, Fold-change over medium only [1, 10]: 1.32
Whole blood IP-10 release, Concentration [1, 11]: 3293 pg/mL
Whole blood IP-10 release, Fold-change over medium only [1, 11]: 3.69
Whole blood IL-2 release, Concentration [2, 12]: 3.2 pg/mL
Whole blood IL-2 release, Fold-change over medium only [2, 12]: 1.00
Whole blood IL-2 release, Concentration [2, 13]: 3.2 pg/mL
Whole blood IL-2 release, Fold-change over medium only [2, 13]: 1.00
Whole blood IL-2 release, Concentration [2, 14]: 3.2 pg/mL
Whole blood IL-2 release, Fold-change over medium only [2, 14]: 1.00
Whole blood IL-2 release, Concentration [2, 15]: 12.2 pg/mL
Whole blood IL-2 release, Fold-change over medium only [2, 15]: 3.82
Whole blood IL-2 release, Concentration [2, 16]: 12.5 pg/mL
Whole blood IL-2 release, Fold-change over medium only [2, 16]: 2.52
Whole blood IL-2 release, Concentration [2, 17]: 88.5 pg/mL
Whole blood IL-2 release, Fold-change over medium only [2, 17]: 20.88
Whole blood IL-2 release, Concentration [2, 18]: 144.4 pg/mL
Whole blood IL-2 release, Fold-change over medium only [2, 18]: 2.30
Whole blood IL-2 release, Concentration [2, 19]: 71.2 pg/mL
Whole blood IL-2 release, Fold-change over medium only [2, 19]: 1.69
Whole blood IFNg release, Concentration [3, 12]: 39 pg/mL
Whole blood IFNg release, Fold-change over medium only [3, 12]: 0.71
Whole blood IFNg release, Concentration [3, 13]: 55 pg/mL
Whole blood IFNg release, Fold-change over medium only [3, 13]: 0.84
Whole blood IFNg release, Concentration [3, 14]: 4.1 pg/mL
Whole blood IFNg release, Fold-change over medium only [3, 14]: 1.06
Whole blood IFNg release, Concentration [3, 15]: 13.9 pg/mL
Whole blood IFNg release, Fold-change over medium only [3, 15]: 2.85
Whole blood IFNg release, Concentration [3, 16]: 102 pg/mL
Whole blood IFNg release, Fold-change over medium only [3, 16]: 1.05
Whole blood IFNg release, Concentration [3, 17]: 200 pg/mL
Whole blood IFNg release, Fold-change over medium only [3, 17]: 2.03
Whole blood IFNg release, Concentration [3, 18]: 407 pg/mL
Whole blood IFNg release, Fold-change over medium only [3, 18]: 1.71
Whole blood IFNg release, Concentration [3, 19]: 194 pg/mL
Whole blood IFNg release, Fold-change over medium only [3, 19]: 1.29

(pE)PEQPIPEQPQPYPQQ-NH2 ([pGlu]PEQPIPEQPQPYPQQ-NH2; SMILES CC[C@H](C)[C@H](NC(=O)[C@@H]1CCCN1C(=O)[C@H](CCC(N)=O)NC(=O)[C@H](CCC(=O)O)NC(=O)[C@@H]1CCCN1C(=O)[C@@H]1CCC(=O)N1)C(=O)N1CCC[C@H]1C(=O)N[C@@H](CCC(=O)O)C(=O)N[C@@H](CCC(N)=O)C(=O)N1CCC[C@H]1C(=O)N[C@@H](CCC(N)=O)C(=O)N1CCC[C@H]1C(=O)N[C@@H](Cc1ccc(O)cc1)C(=O)N1CCC[C@H]1C(=O)N[C@@H](CCC(N)=O)C(=O)N[C@@H](CCC(N)=O)C(N)=O)
Whole blood IP-10 release, Concentration [1, 4]: 235 pg/mL
Whole blood IP-10 release, Fold-change over medium only [1, 4]: 0.89
Whole blood IP-10 release, Concentration [1, 5]: 325 pg/mL
Whole blood IP-10 release, Fold-change over medium only [1, 5]: 0.97
Whole blood IP-10 release, Concentration [1, 6]: 336 pg/mL
Whole blood IP-10 release, Fold-change over medium only [1, 6]: 1.26
Whole blood IP-10 release, Concentration [1, 7]: 1269 pg/mL
Whole blood IP-10 release, Fold-change over medium only [1, 7]: 4.06
Whole blood IP-10 release, Concentration [1, 8]: 3409 pg/mL
Whole blood IP-10 release, Fold-change over medium only [1, 8]: 12.30
Whole blood IP-10 release, Concentration [1, 9]: 10000 pg/mL
Whole blood IP-10 release, Fold-change over medium only [1, 9]: 49.76
Whole blood IP-10 release, Concentration [1, 10]: 713 pg/mL
Whole blood IP-10 release, Fold-change over medium only [1, 10]: 0.96
Whole blood IP-10 release, Concentration [1, 11]: 2549 pg/mL
Whole blood IP-10 release, Fold-change over medium only [1, 11]: 2.86
Whole blood IL-2 release, Concentration [2, 12]: 3.2 pg/mL
Whole blood IL-2 release, Fold-change over medium only [2, 12]: 1.00
Whole blood IL-2 release, Concentration [2, 13]: 3.2 pg/mL
Whole blood IL-2 release, Fold-change over medium only [2, 13]: 1.00
Whole blood IL-2 release, Concentration [2, 14]: 3.2 pg/mL
Whole blood IL-2 release, Fold-change over medium only [2, 14]: 1.00
Whole blood IL-2 release, Concentration [2, 15]: 22.4 pg/mL
Whole blood IL-2 release, Fold-change over medium only [2, 15]: 7.00
Whole blood IL-2 release, Concentration [2, 16]: 23.3 pg/mL
Whole blood IL-2 release, Fold-change over medium only [2, 16]: 4.71
Whole blood IL-2 release, Concentration [2, 17]: 134.3 pg/mL
Whole blood IL-2 release, Fold-change over medium only [2, 17]: 31.67
Whole blood IL-2 release, Concentration [2, 18]: 106.1 pg/mL
Whole blood IL-2 release, Fold-change over medium only [2, 18]: 1.69
Whole blood IL-2 release, Concentration [2, 19]: 27.8 pg/mL
Whole blood IL-2 release, Fold-change over medium only [2, 19]: 0.66
Whole blood IFNg release, Concentration [3, 12]: 42 pg/mL
Whole blood IFNg release, Fold-change over medium only [3, 12]: 0.76
Whole blood IFNg release, Concentration [3, 13]: 72 pg/mL
Whole blood IFNg release, Fold-change over medium only [3, 13]: 1.09
Whole blood IFNg release, Concentration [3, 14]: 3.3 pg/mL
Whole blood IFNg release, Fold-change over medium only [3, 14]: 0.85
Whole blood IFNg release, Concentration [3, 15]: 8.6 pg/mL
Whole blood IFNg release, Fold-change over medium only [3, 15]: 1.77
Whole blood IFNg release, Concentration [3, 16]: 96 pg/mL
Whole blood IFNg release, Fold-change over medium only [3, 16]: 0.99
Whole blood IFNg release, Concentration [3, 17]: 278 pg/mL
Whole blood IFNg release, Fold-change over medium only [3, 17]: 2.84
Whole blood IFNg release, Concentration [3, 18]: 170 pg/mL
Whole blood IFNg release, Fold-change over medium only [3, 18]: 0.71
Whole blood IFNg release, Concentration [3, 19]: 102 pg/mL
Whole blood IFNg release, Fold-change over medium only [3, 19]: 0.68
